Source: patent US20260335313A1, “NOVEL CDK9 INHIBITORS” (Origenis GmbH, priority 2022, published 2026)

Molecular target: T1, CDK9/CyclinT1 (Homo sapiens, UniProt P50750)
T1 construct: purchased ProQinase/Reaction Biology, USA 0371-0345-1
Assay: CDK9/T1 ADPGlo Activity (ADP Glo Kinase assay, inhibitory activity)
Format: biochemical
Conditions: CDK9/CyclinT1 f.c. 6 nM; PDKtide 40 microM; ATP 10 microM; 10 min preincubation, 120 min at RT; 12 concentrations, 1:3 dilution from 5 microM
Experimental: ASSAY PROTOCOL for Determination of Inhibitory Activity
The testing compound was evaluated in 12 concentrations in a 1:3 dilution series, starting from 5microM as the highest concentration.
In a white 384 microplate (Greiner bio-one, Austria #784904,) with 2 microL of 3-fold concentrated CDK9/CyclinT1 (ProQinase/Reaction Biology, USA #0371-0345-1, LOT.: 012), final concentration (f.c.) 6 nM, in 1× kinase buffer, 2 microL of compound (3× fold concentrated in f.c. 1.66% DMSO/H2O) was added and incubated at Room Temperature (RT) for 10 min. Then 2 microL of Substrate/ATP-Mix (3× PDKtide f.c. 40 microM, SignalChem Biotech, Canada via Biozol, Eching, Germany #P10-58, LOT.: L2230-7 and 3× UltraPure ATP f.c. 10 microM (ADP Glo Kinase assay, Promega GmbH, Germany #V9102)) were added, mixed and incubated for 120 min at RT.
After incubation time, 5 microL of ADP Glo reagent (ready to use, ADP Glo Kinase assay, Promega GmbH, Germany #V9102) were added, mixed and incubated for 40 min at RT.
In the last step, 10 microL of ADP Glo Detection reagent (ready to use, ADP Glo Kinase assay, Promega GmbH, Germany #V9102) were added, mixed and incubated for 30 min at RT.
GloMax Discover GM3000 Reader (Promega GmbH, Germany 9700000249) was used for the readout.
The inhibitor concentration was plotted against the luminescence to determine the IC50 using XLFit 5.5 (IDBS, Guildford) to fit to a sigmoidal dose response curve with a variable slope.

T1 sequence (P50750 whole entry): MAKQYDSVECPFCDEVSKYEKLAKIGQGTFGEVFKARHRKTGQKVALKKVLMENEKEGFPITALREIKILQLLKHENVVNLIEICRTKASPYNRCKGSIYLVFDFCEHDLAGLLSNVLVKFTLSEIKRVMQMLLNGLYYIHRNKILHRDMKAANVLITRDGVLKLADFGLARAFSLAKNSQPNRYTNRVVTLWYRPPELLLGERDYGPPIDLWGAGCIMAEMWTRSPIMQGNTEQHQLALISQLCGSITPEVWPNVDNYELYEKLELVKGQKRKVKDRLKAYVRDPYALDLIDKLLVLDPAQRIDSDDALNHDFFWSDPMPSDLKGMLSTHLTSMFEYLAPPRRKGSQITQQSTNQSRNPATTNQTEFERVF
T1 sequence (O60563 whole entry partner): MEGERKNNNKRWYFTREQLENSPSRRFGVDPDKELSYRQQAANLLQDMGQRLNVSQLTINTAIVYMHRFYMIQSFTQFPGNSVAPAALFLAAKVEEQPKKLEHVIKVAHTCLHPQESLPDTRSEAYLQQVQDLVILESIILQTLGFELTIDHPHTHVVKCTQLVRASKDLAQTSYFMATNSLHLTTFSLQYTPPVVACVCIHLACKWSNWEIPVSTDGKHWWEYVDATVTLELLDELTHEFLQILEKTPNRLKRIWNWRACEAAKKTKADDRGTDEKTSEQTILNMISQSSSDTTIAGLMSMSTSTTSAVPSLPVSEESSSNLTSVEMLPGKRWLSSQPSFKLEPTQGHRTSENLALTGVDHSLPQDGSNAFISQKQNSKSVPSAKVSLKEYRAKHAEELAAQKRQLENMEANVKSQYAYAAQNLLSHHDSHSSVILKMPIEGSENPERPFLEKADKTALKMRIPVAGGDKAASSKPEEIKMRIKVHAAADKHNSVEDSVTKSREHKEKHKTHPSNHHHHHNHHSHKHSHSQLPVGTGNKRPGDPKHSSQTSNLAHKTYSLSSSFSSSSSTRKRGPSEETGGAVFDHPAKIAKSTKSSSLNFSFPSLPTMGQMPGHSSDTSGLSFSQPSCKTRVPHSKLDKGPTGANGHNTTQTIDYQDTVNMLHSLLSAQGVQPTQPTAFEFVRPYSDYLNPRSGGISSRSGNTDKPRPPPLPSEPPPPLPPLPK

| SMILES | IC50 |
| --- | --- |
| CN1CCN([C@H]2CC[C@H](Nc3cc(-c4c(F)cccc4F)nn4c(Cl)cnc34)CC2)CC1 [Example #1, 3-chloro-6-(2,6-difluorophenyl)-N-((1r,4r)-4-(4-methylpiperazin-1-yl)cyclohexyl)imidazo[1,2-b]pyridazin-8-amine] | < 200 nM |
| CN1CCC(Nc2cc(-c3c(F)cccc3F)nn3c(Cl)cnc23)CC1 [Example #10, 3-chloro-6-(2,6-difluorophenyl)-N-(1-methylpiperidin-4-yl)imidazo[1,2-b]pyridazin-8-amine] | < 20 nM |
| Fc1cccc(F)c1-c1cc(N[C@H]2CC[C@H](N3CCOCC3)CC2)c2ncc(Cl)n2n1 [Example #11, 3-chloro-6-(2,6-difluorophenyl)-N-((1r,4r)-4-morpholinocyclohexyl)imidazo[1,2-b]pyridazin-8-amine] | < 20 nM |
| CC1CN(C(=O)OC(C)(C)C)CCC1Nc1cc(-c2c(F)cccc2F)nn2c(Cl)cnc12 (racemic) [Example #16, tert-butyl-4-((3-chloro-6-(2,6-difluorophenyl)imidazo[1,2-b]pyridazin-8-yl)amino)-3-methylpiperidine-1-carboxylate] | < 200 nM |
| Fc1cccc(F)c1-c1cc(NCc2cccnc2)c2ncc(Cl)n2n1 [Example #4, 3-chloro-6-(2,6-difluorophenyl)-N-(pyridin-3-ylmethyl)imidazo[1,2-b]pyridazin-8-amine] | < 20 nM |
| CN(C)[C@H]1CC[C@H](Nc2cc(-c3c(F)cccc3F)nn3c(Cl)cnc23)CC1 [Example #12, (1r,4r)-N1-(3-chloro-6-(2,6-difluorophenyl)imidazo[1,2-b]pyridazin-8-yl)-N4,N4-dimethylcyclohexane-1,4-diamine] | < 200 nM |
| CC1CN(S(C)(=O)=O)CCC1Nc1cc(-c2c(F)cccc2F)nn2c(Cl)cnc12 (racemic) [Example #14, 3-chloro-6-(2,6-difluorophenyl)-N-(3-methyl-1-(methylsulfonyl)piperidin-4-yl)imidazo[1,2-b]pyridazin-8-amine] | < 200 nM |
| NC1CCC(Nc2c(Cl)c(-c3c(F)cccc3F)nn3c(Cl)cnc23)CC1 (stereo not shown) [Example #8, (1r,4r)-N1-(3,7-dichloro-6-(2,6-difluorophenyl)imidazo[1,2-b]pyridazin-8-yl)cyclohexane-1,4-diamine] | < 200 nM |
| CS(=O)(=O)N1CCC(Nc2cc(-c3c(F)cccc3F)nn3c(Cl)cnc23)CC1 [Example #17, 3-chloro-6-(2,6-difluorophenyl)-N-(1-(methylsulfonyl)piperidin-4-yl)imidazo[1,2-b]pyridazin-8-amine] | < 20 nM |
| N[C@H]1CC[C@H](Nc2cc(-c3c(F)cccc3F)nn3c(Cl)cnc23)CC1 [Example #9, (1r,4r)-N1-(3-chloro-6-(2,6-difluorophenyl)imidazo[1,2-b]pyridazin-8-yl)cyclohexane-1,4-diamine] | < 200 nM |
| Cc1cc(C)c(CNc2cc(-c3c(F)cccc3F)nn3c(Cl)cnc23)cn1 [Example #3, 3-chloro-6-(2,6-difluorophenyl)-N-((4,6-dimethylpyridin-3-yl)methyl)imidazo[1,2-b]pyridazin-8-amine] | < 20 nM |
| CN1CCC(Nc2cc(-c3c(F)cccc3F)nn3c(Cl)cnc23)C1 (racemic) [Example #18, 3-chloro-6-(2,6-difluorophenyl)-N-(1-methylpyrrolidin-3-yl)imidazo[1,2-b]pyridazin-8-amine] | < 20 nM |
| CC1CNCCC1Nc1cc(-c2c(F)cccc2F)nn2c(Cl)cnc12 (racemic) [Example #15, 3-chloro-6-(2,6-difluorophenyl)-N-(3-methylpiperidin-4-yl)imidazo[1,2-b]pyridazin-8-amine] | < 200 nM |
